Experimental data reported in patent US8129197B2, “Cholesterol loaded insect cell membranes as test proteins” (SOLVO Biotechnológial ZRT., priority 2006, dated 2012).
Where two headings read alike, the source gives them in different places.

Experiments:
[1] = molecular target: T1, ABCG2 (Homo sapiens, UniProt Q9UNQ0); test: Vanadate sensitive ABCG2-ATPase assay in ABCG2-Sf9 (insect cell) membranes
T1 sequence (Q9UNQ0 1-655): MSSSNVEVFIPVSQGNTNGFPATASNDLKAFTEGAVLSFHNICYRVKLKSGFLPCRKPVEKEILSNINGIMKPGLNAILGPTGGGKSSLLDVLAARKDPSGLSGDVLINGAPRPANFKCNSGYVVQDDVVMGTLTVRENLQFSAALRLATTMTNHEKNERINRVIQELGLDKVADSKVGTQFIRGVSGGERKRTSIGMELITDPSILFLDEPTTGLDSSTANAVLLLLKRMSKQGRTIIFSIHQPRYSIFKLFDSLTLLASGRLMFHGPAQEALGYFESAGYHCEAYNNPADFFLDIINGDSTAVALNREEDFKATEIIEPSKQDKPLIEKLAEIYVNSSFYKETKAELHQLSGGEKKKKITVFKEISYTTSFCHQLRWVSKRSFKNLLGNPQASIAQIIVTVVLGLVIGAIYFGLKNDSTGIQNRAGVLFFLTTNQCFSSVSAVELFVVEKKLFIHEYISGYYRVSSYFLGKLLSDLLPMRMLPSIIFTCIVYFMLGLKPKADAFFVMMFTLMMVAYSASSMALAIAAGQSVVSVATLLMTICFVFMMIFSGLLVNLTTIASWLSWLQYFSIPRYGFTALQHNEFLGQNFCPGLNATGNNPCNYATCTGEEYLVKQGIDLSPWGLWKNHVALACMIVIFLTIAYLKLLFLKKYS
Method: (§1) Measurement of transporter activity: The ATPase activity of transporters are measured based on their vanadate sensitivity as known in the literature (see Noe et al. Hepatology, 2001, Vol. 33, No. 5, pp 1223-31; Schmitt et al. J. Neural. Transm., in press; Özvegy C et al. “Functional characterization of the human multidrug transporter, ABCG2, expressed in insect cells” Biochem Biophys Res Commun. 2001 July 6; 285(1):111-7.; Sarkadi, B. et al. (1992) Expression of the human multidrug resistance cDNA in insect cells generates a high activity drug-stimulated membrane ATPase. J Biol Chem 267: 4854-4858.).
(§2) The samples treated with cyclodextrin, or cholesterol@RAMEB complex was compared with untreated vesicles.
(§3) Briefly, as an example, membrane vesicles (20 μg/well) were incubated in ATPase assay buffer (10 mM MgCl2, 40 mM MOPS-Tris (pH 7.0), 50 mM KCl, 5 mM dithiothreitol, 0.1 mM EGTA, 4 mM sodium azide, 1 mM ouabain), 5 mM ATP and various concentrations of test drugs for 40 min at 37° C. ATPase activities were determined as the difference of inorganic phosphate liberation measured with and without the presence of 1.2 mM sodium orthovanadate (vanadate-sensitive ATPase activity).
EC50 is defined according to the International Union of Pharmacology Committee (Neubig, R. R., Spedding, M., Kenakin, T. and Christopoulos, A. (2003) International Union of Pharmacology Committee on Receptor Nomenclature and Drug Classification. XXXVIII. Update on terms and symbols in quantitative pharmacology. Pharmacol Rev 55: 597-606.).
The Michaelis-Menten parameters of maximal velocity (Vmax) and drug affinity (Km) were obtained from plots of the ATPase activity as a function of test drug concentration by nonlinear regression of the following equation:
where v=enzyme activity (nmol Pi/min/mg), Vmax=maximal ATPase activity (nmol Pi/min/mg), Km=Michaelis-Menten constant for the tested substrate (nM) and [S] substrate concentration (nM). The equation 3 was used also for curve fitting on vesicular transport graphs.

[2] = molecular target: T1, ABCG2; test: Vanadate sensitive ABCG2-ATPase assay in ABCG2-M (mammalian cell) membranes
Method: Human membrane vesicle preparations (ABCG2-M) as well as membrane vesicle preparations obtained from insect cells expressing ABCG2, (MXR-Sf9) were obtained from Solvo Biotechnology (Budapest, Hungary). Both membranes are overexpressing the wild type version of ABCG2. The insect membrane vesicle preparations were produced using recombinant baculoviruses encoding ABCG2 (Ozvegy et al., 2002). Sf9 cells were cultured and infected with recombinant baculovirus stocks as described earlier (Sarkadi et al., 1992). Purified membrane vesicles from baculovirus-infected Sf9 cells were prepared essentially as described previously (Sarkadi et al., 1992). Membrane protein content was determined using the BCA method (Pierce Biotechnology, Rockford, Ill., USA).
as §1, §2, §3

[3] = molecular target: T2, wild-type ABCG2 (Homo sapiens, UniProt Q9UNQ0); test: Vesicular transport assay, inside-out ABCG2-Sf9 membrane vesicles
T2 sequence (Q9UNQ0 1-655): T1 sequence (Q9UNQ0 1-655)
Method: Measurement of the vesicular transport activity: The transport activity measurements were carried out with purified membrane vesicles containing ABCG2 or Bsep isolated from baculovirus infected Sf9 (Spodoptera frugiperda) cells or mammalian (ABCG2-M) cells. The membrane preparations contain 5-16% closed, inside-out oriented, membrane vesicles. The transporter pumps the molecules inside of these vesicles. The vesicles can be separated by rapidly filtrating of the membrane suspension through a glass filter or through a nitrocellulose membrane (using vacuum).
The quantitative determination of the transported molecule can be done in several ways, like: HPLC, LC/MS, but also fluorescent or radioactive labeling is also suitable. Tritium labeled substrates were used in the assays and the mode of detection was liquid-scintillation.
Measurement of the vesicular transport activity in case of ABCG2: More closely, as examples, inside-out membrane vesicles were incubated in the presence or absence of 4 mM ATP. […] The transport was stopped by addition of cold wash buffer (40 mM MOPS-Tris (pH 7.0), 70 mM KCl).
The transport was stopped by addition of cold wash buffer (10 mM Tris-HCl, pH 7.4; 250 mM sucrose and 100 mM NaCl).
For estrone-3-sulfate vesicular transport 10 mM Tris-HCl, (pH 7.4), 250 mM sucrose, and 10 mM MgCl2 containing buffer were incubated at 32° C. for 1 min. The transport was stopped by addition of cold wash buffer (10 mM Tris-HCl, pH 7.4; 250 mM sucrose and 100 mM NaCl).
The incubation mix was then rapidly filtered through class B glass fiber filters (pore size, 0.1 μm). Filters were washed with 5×200 μl of ice cold wash buffer and radioactivity retained on the filter was measured by liquid scintillation counting. ATP-dependent transport was calculated by subtracting the values obtained in the absence of ATP from those in the presence of ATP.
Exemplary Assay Design and Main Steps for ABCG2 • Prepare an appropriate concentration of membrane suspension in assay buffer; add the unlabeled and ^3H-labeled substrates to the suspension.

[4] = substrate: CN(Cc1cnc2nc(N)nc(N)c2n1)c1ccc(C(=O)N[C@@H](CCC(=O)O)C(=O)O)cc1; test: cells, lysate or membranes named

`O=C1c2c(O)ccc(O)c2C(=O)c2c(NCCNCCO)ccc(NCCNCCO)c21` [mitoxantrone] was tested, and the “Effect on ABCG2-ATPase activity (in words)” value [1] was “did not display any effect”.

For rhodamine, the “Effect on ABCG2-ATPase activity (in words)” value ([1]; cholesterol loaded Sf9 membranes) was “did not display any effect”.

For `C[C@]12CC[C@@H]3c4ccc(OS(=O)(=O)O)cc4CC[C@H]3[C@@H]1CCC2=O` [Estrone-3-sulfate, estrone 3-sulfate], the “Vmax (ABCG2-ATPase)” value [1] was 35.58 nmol Pi/mg prot./min and the “Vmax (ABCG2-ATPase)” value [2] was 38.87 nmol Pi/mg prot./min.

`CC[C@@]1(O)C(=O)OCc2c1cc1n(c2=O)Cc2cc3c(CN(C)C)c(O)ccc3nc2-1` [Topotecan, topotecan] was tested, and the “Level of stimulation (vanadate sensitive ATPase activity in %)” value ([1]; human, 40 min, 200 uM, pH 7) was 31%, the “Effect on ABCG2-ATPase activity (in words)” value ([1]; human, 40 min, pH 7) was “can not be activated” and the “Effect on ABCG2-ATPase activity (in words)” value [2] was “significantly stimulated”.

With `COc1cccc2c1C(=O)c1c(O)c3c(c(O)c1C2=O)C[C@@](O)(C(=O)CO)C[C@@H]3O[C@H]1C[C@H](N)[C@H](O)[C@H](C)O1` [Doxorubicin] the “Level of stimulation (vanadate sensitive ATPase activity in %)” value ([1]; human, 40 min, 50 uM, pH 7) was 83 ± 18 (3) %.

For `COc1cc2ncnc(Nc3ccc(F)c(Cl)c3)c2cc1OCCCN1CCOCC1` [ZD 1839, Gefitinib], the “Level of stimulation (vanadate sensitive ATPase activity in %)” value ([1]; human, 40 min, 5 uM, pH 7) was 73 ± 19 (3) %.

With Randomly methylated-β-cyclodextrin [CD] the “Effect of membrane pretreatment on ABCG2-dependent transport activity (in words)” value [3] was “did not significantly affect”.

In the case of `Nc1ncnc2c1ncn2[C@@H]1O[C@H](COP(=O)(O)OP(=O)(O)OP(=O)(O)O)[C@@H](O)[C@H]1O` [ATP], the “ATP concentration of maximum MTX transport rate” value [3] is reported as “about 5 mM”, the Km [3] is reported as 600 to 800 µM and the Km [1] is reported as 2000 µM. It also gave a Km ([2]; read-out: KM of vanadate sensitive basal ATPase activity with respect to ATP, ABCG2-M membranes) of 2200 µM.

For `O=C(O)c1cc(/N=N/c2ccc(S(=O)(=O)Nc3ccccn3)cc2)ccc1O` [Sulfasalazine, sulfasalazine], the “Effect on ABCG2-ATPase activity (in words)” value [1] was “weak activator”, the “Level of stimulation (vanadate sensitive ATPase activity in %)” value ([1]; human, 40 min, 20 uM, pH 7) was 71% (3) and the “Increase of vanadate sensitive ABCG2 ATPase activity in the presence of the substrate” value ([1]; human, 40 min, pH 7) was 5 nmol/Pi/mg prot/min. The “Vanadate sensitive ABCG2 ATPase activity activated by the substrate” value ([1]; human, 40 min, pH 7) was 58 nmol/Pi/mg prot/min, the “Effect on ABCG2-ATPase activity (in words)” value [2] was “significantly stimulated” and the “Vanadate sensitive ABCG2 ATPase activity activated by the substrate” value ([2]; human, 40 min, pH 7) was 40 nmol/Pi/mg prot/min.

In the case of `C[C@]12CC[C@@H]3c4ccc(O)cc4CC[C@H]3[C@@H]1CC[C@@H]2O[C@@H]1O[C@H](C(=O)O)[C@@H](O)[C@H](O)[C@H]1O` [ESG, estradiol 17-beta glucuronide], the “apparent Vmax of ESG uptake” value ([3]; cholesterol-loaded vesicles) is reported as 700 pmol ESG/mg membrane protein/min, the “apparent Vmax of ESG uptake” value ([3]; control Sf9 membrane vesicles) is reported as “less than 50 pmol ESG/mg membrane protein/min” and the Km ([3]; read-out: apparent Km for ESG, cholesterol-loaded vesicles) is reported as about 45 µM.

B1: wild-type ABCG2 (Homo sapiens) (protein)
chain: T1 sequence (Q9UNQ0 1-655)
With B1 the Km ([4]; other: ABCG2-Sf9 membranes) was 3900 µM, the Km ([4]; other: both untreated and C-CD pretreated vesicles) was 500 µM and the Km ([4]; other: untreated membranes, ± S.D.) was 935 µM.
